# Reference: PubChem BioAssay (NCI)
#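 Growth conditions: 96-well plates. Treatment: test compound, 48 hours, 5 concentrations. Analysis: linear interpolation between bracketing concentrations; unreached endpoints set to highest concentration. GI50 is the concentration that inhibits growth by half. At the TGI there is no net growth.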
# Legend:
# Experiment in all cases: NCI-60 cell line screen, 48 h
# UACC-62 melanoma = test system: UACC-62 melanoma
# HL-60(TB) leukemia = test system: HL-60(TB) leukemia
# LOX IMVI melanoma = test system: LOX IMVI melanoma
# SNB-75 CNS = test system: SNB-75 CNS
# CAKI-1 renal = test system: CAKI-1 renal
# RPMI-8226 leukemia = test system: RPMI-8226 leukemia
# A498 renal = test system: A498 renal
# T-47D breast = test system: T-47D breast
# U251 CNS = test system: U251 CNS
# 786-0 renal = test system: 786-0 renal
# MALME-3M melanoma = test system: MALME-3M melanoma
# SK-MEL-28 melanoma = test system: SK-MEL-28 melanoma
# SK-MEL-5 melanoma = test system: SK-MEL-5 melanoma
# TK-10 renal = test system: TK-10 renal
# NCI/ADR-RES ovarian = test system: NCI/ADR-RES ovarian
# UO-31 renal = test system: UO-31 renal
# HCT-15 colon = test system: HCT-15 colon
# MOLT-4 leukemia = test system: MOLT-4 leukemia
# OVCAR-8 ovarian = test system: OVCAR-8 ovarian
# OVCAR-5 ovarian = test system: OVCAR-5 ovarian
# COLO 205 colon = test system: COLO 205 colon
# BT-549 breast = test system: BT-549 breast
# SNB-19 CNS = test system: SNB-19 CNS
# NCI-H460 lung = test system: NCI-H460 lung
# KM12 colon = test system: KM12 colon
# NCI-H522 lung = test system: NCI-H522 lung
# SK-OV-3 ovarian = test system: SK-OV-3 ovarian
# HOP-92 NSCLC = test system: HOP-92 NSCLC
# OVCAR-3 ovarian = test system: OVCAR-3 ovarian
# HS 578T breast = test system: HS 578T breast
# HT29 colon = test system: HT29 colon
# MDA-MB-231 breast = test system: MDA-MB-231 breast
# EKVX NSCLC = test system: EKVX NSCLC
# SN12C renal = test system: SN12C renal
# ACHN renal = test system: ACHN renal
# SK-MEL-2 melanoma = test system: SK-MEL-2 melanoma
# DU-145 prostate = test system: DU-145 prostate
# RXF 393 renal = test system: RXF 393 renal
# PC-3 prostate = test system: PC-3 prostate
# NCI-H23 lung = test system: NCI-H23 lung
# IGROV1 ovarian = test system: IGROV1 ovarian
# K-562 leukemia = test system: K-562 leukemia
# SF-295 CNS = test system: SF-295 CNS
# MDA-MB-435 = test system: MDA-MB-435
# M14 melanoma = test system: M14 melanoma
# A549 NSCLC = test system: A549 NSCLC
# OVCAR-4 ovarian = test system: OVCAR-4 ovarian
# SW-620 colon = test system: SW-620 colon
# CCRF-CEM leukemia = test system: CCRF-CEM leukemia
# HCT-116 colon = test system: HCT-116 colon
# NCI-H226 lung = test system: NCI-H226 lung
# UACC-257 melanoma = test system: UACC-257 melanoma
# HCC-2998 colon = test system: HCC-2998 colon
# SF-268 CNS = test system: SF-268 CNS
# SR leukemia = test system: SR leukemia
# SF-539 CNS = test system: SF-539 CNS
# HOP-62 NSCLC = test system: HOP-62 NSCLC
smiles,measurement,setting,value
O=[N+]([O-])c1cccc(-c2nc3sccn3c2-c2ccnc(NCCCNS(=O)(=O)c3ccc(F)cc3)n2)c1,GI50,UACC-62 melanoma,1.2 µM
same,TGI,UACC-62 melanoma,4.21 µM
same,GI50,HL-60(TB) leukemia,2.55 µM
same,TGI,HL-60(TB) leukemia,6.69 µM
same,GI50,LOX IMVI melanoma,2.57 µM
same,TGI,LOX IMVI melanoma,10.4 µM
same,GI50,SNB-75 CNS,1.58 µM
same,TGI,SNB-75 CNS,6.07 µM
same,GI50,CAKI-1 renal,2.33 µM
same,TGI,CAKI-1 renal,> 100 µM
same,GI50,RPMI-8226 leukemia,0.677 µM
same,TGI,RPMI-8226 leukemia,2.94 µM
same,GI50,A498 renal,1.87 µM
same,TGI,A498 renal,> 100 µM
same,GI50,T-47D breast,0.303 µM
same,TGI,T-47D breast,2.82 µM
same,GI50,U251 CNS,3.73 µM
same,TGI,U251 CNS,> 100 µM
same,GI50,786-0 renal,7.39 µM
same,TGI,786-0 renal,> 100 µM
same,GI50,MALME-3M melanoma,2 µM
same,TGI,MALME-3M melanoma,6.76 µM
same,GI50,SK-MEL-28 melanoma,2.75 µM
same,TGI,SK-MEL-28 melanoma,7.92 µM
same,GI50,SK-MEL-5 melanoma,1.06 µM
same,TGI,SK-MEL-5 melanoma,2.45 µM
same,GI50,TK-10 renal,4.34 µM
same,TGI,TK-10 renal,> 100 µM
same,GI50,NCI/ADR-RES ovarian,1.85 µM
same,TGI,NCI/ADR-RES ovarian,7.31 µM
same,GI50,UO-31 renal,1.4 µM
same,TGI,UO-31 renal,8.39 µM
same,GI50,HCT-15 colon,2.08 µM
same,TGI,HCT-15 colon,9.79 µM
same,GI50,MOLT-4 leukemia,1.23 µM
same,TGI,MOLT-4 leukemia,5.52 µM
same,GI50,OVCAR-8 ovarian,1.74 µM
same,TGI,OVCAR-8 ovarian,22.2 µM
same,GI50,OVCAR-5 ovarian,5.63 µM
same,TGI,OVCAR-5 ovarian,> 100 µM
same,GI50,COLO 205 colon,2.44 µM
same,TGI,COLO 205 colon,8.24 µM
same,GI50,BT-549 breast,2.14 µM
same,TGI,BT-549 breast,7.03 µM
same,GI50,SNB-19 CNS,4.01 µM
same,TGI,SNB-19 CNS,> 100 µM
same,GI50,NCI-H460 lung,2.94 µM
same,TGI,NCI-H460 lung,> 100 µM
same,GI50,KM12 colon,2.59 µM
same,TGI,KM12 colon,7.91 µM
same,GI50,NCI-H522 lung,1.59 µM
same,TGI,NCI-H522 lung,6.02 µM
same,GI50,SK-OV-3 ovarian,4.17 µM
same,TGI,SK-OV-3 ovarian,> 100 µM
same,GI50,HOP-92 NSCLC,1.74 µM
same,TGI,HOP-92 NSCLC,> 100 µM
same,GI50,OVCAR-3 ovarian,2.31 µM
same,TGI,OVCAR-3 ovarian,8.49 µM
same,GI50,HS 578T breast,3.25 µM
same,TGI,HS 578T breast,> 100 µM
same,GI50,HT29 colon,2.9 µM
same,TGI,HT29 colon,> 100 µM
same,GI50,MDA-MB-231 breast,4.98 µM
same,TGI,MDA-MB-231 breast,> 100 µM
same,GI50,EKVX NSCLC,2.9 µM
same,TGI,EKVX NSCLC,> 100 µM
same,GI50,SN12C renal,2.61 µM
same,TGI,SN12C renal,> 100 µM
same,GI50,ACHN renal,2.19 µM
same,TGI,ACHN renal,10.8 µM
same,GI50,SK-MEL-2 melanoma,2.06 µM
same,TGI,SK-MEL-2 melanoma,5.43 µM
same,GI50,DU-145 prostate,2.65 µM
same,TGI,DU-145 prostate,12.9 µM
same,GI50,RXF 393 renal,6.95 µM
same,TGI,RXF 393 renal,> 100 µM
same,GI50,PC-3 prostate,1.14 µM
same,TGI,PC-3 prostate,4.82 µM
same,GI50,NCI-H23 lung,2.42 µM
same,TGI,NCI-H23 lung,9.16 µM
same,GI50,IGROV1 ovarian,2.9 µM
same,TGI,IGROV1 ovarian,26.8 µM
same,GI50,K-562 leukemia,1.62 µM
same,TGI,K-562 leukemia,> 100 µM
same,GI50,SF-295 CNS,2.62 µM
same,TGI,SF-295 CNS,8.15 µM
same,GI50,MDA-MB-435,2.55 µM
same,TGI,MDA-MB-435,7.93 µM
same,GI50,M14 melanoma,2.72 µM
same,TGI,M14 melanoma,> 100 µM
same,GI50,A549 NSCLC,2.73 µM
same,TGI,A549 NSCLC,> 100 µM
same,GI50,OVCAR-4 ovarian,1.65 µM
same,TGI,OVCAR-4 ovarian,6.55 µM
same,GI50,SW-620 colon,3.95 µM
same,TGI,SW-620 colon,> 100 µM
same,GI50,CCRF-CEM leukemia,1.2 µM
same,TGI,CCRF-CEM leukemia,7.81 µM
same,GI50,HCT-116 colon,2.85 µM
same,TGI,HCT-116 colon,> 100 µM
same,GI50,NCI-H226 lung,1.95 µM
same,TGI,NCI-H226 lung,7.6 µM
same,GI50,UACC-257 melanoma,2.54 µM
same,TGI,UACC-257 melanoma,7.96 µM
same,GI50,HCC-2998 colon,7.29 µM
same,TGI,HCC-2998 colon,> 100 µM
same,GI50,SF-268 CNS,2.92 µM
same,TGI,SF-268 CNS,> 100 µM
same,GI50,SR leukemia,2.53 µM
same,TGI,SR leukemia,> 100 µM
same,GI50,SF-539 CNS,3.61 µM
same,TGI,SF-539 CNS,> 100 µM
same,GI50,HOP-62 NSCLC,3.16 µM
same,TGI,HOP-62 NSCLC,9.61 µM
